Read-outs that look alike come from different tables or passages of the source.
Experiments:
[1] = test system: human HT29 colon cancer cells; assay: CellTiter-Blue fluorescence cell viability assay; conditions: for IC50: read-out: IC50 value, cell viability, from dose-response curves
Description: (§9) Colon cancer HT29 cells were treated with either FOLFOX alone (green triangles), 5-FU alone (orange triangles), oxaliplatin alone (black squares), Foxy-5 alone (red squares) or FOLFOX+Foxy-5 (blue circles). The cytotoxic effects of these different treatments were evaluated by CellTiter-Blue™ fluorescence cell viability assay. […] The data are normalized and shown as means±SEM.

[2] = test system: HT29 colon cancer cells; assay: HT29 colon cancer xenograft in nude mice, tumours analysed by IHC and mRNA; format: in vivo; conditions: HT29-derived tumours
Text: (§1) Representative photos from saline- and Foxy-5-treated animals are presented. From each such slide, 4 boxes were put on top of the stained tissue and for each of them the ALDH staining was scored as a percentage of stained cells multiplied by the staining intensity. The following score was used for percentage stained cells; 0 for positive stained cells <5%, 1 for positive cells 5-25%, 2 for positive cells 26-50%, 3 for positive cells 51-75%, 4 for positive cells >75%.
(§2) For staining intensities, the stained areas were scored as; 1 for weak staining, 2 for medium staining and 3 for strong staining. For each box a final score was obtained by multiplying the score for percentage of positively stained cells with the score for staining intensity. Finally, a mean value was obtained from the 4 boxes for each tumour. The same scoring protocol was then used for all IHC analyses presented in the present study.
as §1, with “Representative images” for “Representative photos”, “from vehicle (saline)” for “from saline-”, “slide, 6” for “slide, 4”, “were randomly” for “were”
as §2, with “6” for “4”, “tumour sample.” for “tumour.”
(§3) Tumours from two different human colon cancer cell types HT29 and Caco-2 cells were examined by immunohistochemistry (IHC) and mRNA (see FIG. 1).
(§4) On day 0: Subcutaneous injections of HT29 or Caco-2 colon cancer cells in nude mice were done.
(§5) On day 7 after tumours have been established in the mice, intraperitoneal (I.P) injections of vehicle (saline) alone (gr 1) or Foxy-5 (2 μg/g; gr 2) were done.
(§6) On days 9-23 tumour growth and animal weight was monitored—then +8 I.P. injections every 2nd day of either vehicle alone (gr 1) or Foxy-5 (2 μg/g; gr 2).
(§7) On day 24 the two types of tumours (Caco-2 and HT29 derived) (divided in two parts of which one was fixed and the other frozen at −80° C.) were analyzed by IHC for their protein expression of COX-2, 15PGDH, β-catenin, Ascl2, ALDH and Dckl1 and for their mRNA content of ALDH and Dckl1 (ALDH is a general stem cell marker and Dck1 is a specific marker for colon CSCs).

[3] = test system: colon cancer cells; assay: In vitro treatment of colon cancer cells (Mehdawi et al., 2016); format: cell-based; conditions: in vitro conditions, inventors' own observation
[4] = test system: human HT29 colon cancer cells
Description: as §9

[5] = test system: colon cancer cells; conditions: in vitro; cited from earlier work
[6] = test system: colon cancer xenograph tissue; assay: Colon cancer xenograft tissue (cell line not stated), IHC of COX-2 and 15-PGDH; format: in vivo, nude mice; conditions: Foxy-5 2 μg/g I.P., vs vehicle
Text: The IHC stainings were scored exactly as described in detail for the IHC staining in FIG. 1.
(§8) Representative images from vehicle- and Foxy-5-treated animals are presented. From each such slide 6 boxes were put on top of the stained tissue and for each of them the Cox-2 staining was scored as a percentage of stained cells multiplied by the staining intensity as described in detail for FIG. 2.
as §8, with “15-PGDH” for “Cox-2”
On day 0: Subcutaneous injections of HT29 or Caco-2 colon cancer cells in nude mice were done. […]
as §6, §7

[7] = test system: Caco-2 colon cancer cells; assay: Caco-2 colon cancer xenograft in nude mice, tumours analysed by IHC and mRNA; format: in vivo; conditions: Caco-2-derived tumours
Text: as §1, §2
as §1, with “Representative images” for “Representative photos”, “from vehicle (saline)” for “from saline-”, “slide, 6” for “slide, 4”, “were randomly” for “were”
as §2, with “6” for “4”, “tumour sample.” for “tumour.”
as §3, §4, §5, §6, §7

[8] = Foxy-5 2 μg/g I.P. every 2nd day, day 7-23, IHC and mRNA, day 24, vs vehicle
[9] = Foxy-5 2 μg/g I.P., vs vehicle-treated mice

Question: For `O=c1[nH]cc(F)c(=O)[nH]1` [5-FU, 5-fluorouracil], which IC50 [1] is on record?
Answer: 6.8 µM

Question: Which results are given for MDGCEL [Foxy-5]?
Answer: active β-catenin nuclei expression ([2]; IHC, Foxy-5 2 μg/g I.P.): Decreased; β-catenin downstream target Ascl2 protein expression ([2]; IHC, Foxy-5 2 μg/g I.P.): reductions; expression of the two stem cell biomarkers (ALDH and Dck1) [2, 8]: significantly reduce; tumour volume [2, 9]: reductions; effect on the inhibitory effect of FOLFOX on cell viability ([1]; combined with FOLFOX): do not enhance or reduce; IC50 value, cell viability ([1]; from dose-response curves): no IC50 value could be determined; number of CSCs [3]: not been able to detect any reduction; cytotoxic effect on cell viability [4]: no cytotoxic effect; expression of the PGE2 and lipoxin degrading enzyme 15-PGDH [5]: up-regulate; expression of the PGE2 producing enzyme COX-2 [5]: decrease; β-catenin signalling [5]: reduction; PGE2 degrading enzyme 15-PGDH expression [6]: increase; expression of the PGE2 generating enzyme COX-2 [6]: decrease; active β-catenin nuclei expression ([7]; IHC, Foxy-5 2 μg/g I.P.): Decreased; β-catenin downstream target Ascl2 protein expression ([7]; IHC, Foxy-5 2 μg/g I.P.): reductions; expression of the two stem cell biomarkers (ALDH and Dck1) [7, 8]: significantly reduce; tumour volume [7, 9]: reductions

Question: For `Nc1nc2c(c(=O)[nH]1)N(C=O)C(CNc1ccc(C(=O)N[C@@H](CCC(=O)O)C(=O)O)cc1)CN2` (stereo partly drawn) [folinic acid], which “cytotoxic effect on cell viability” value ([1]; monotherapy) is on record?
Answer: no cytotoxic effect

Question: With `O=C1[O][Pt]2([NH][C@@H]3CCCC[C@H]3[NH]2)[O]C1=O` [oxaliplatin] as the molecule, how does the IC50 [1] read?
Answer: 3.4 µM

B1: WNT5A protein: full length WNT5A protein according to SEQ ID NO: 1, a non-canonical Wnt ligand (protein, listed as Homo sapiens)
chain: MKKSIGILSPGVALGMAGSAMSSKFFLVALAIFFSFAQVVIEANSWWSLGMNNPVQMSEVYIIGAQPLCSQLAGLSQGQKKLCHLYQDHMQYIGEGAKTGIKECQYQFRHRRWNCSTVDNTSVFGRVMQIGSRETAFTYAVSAAGVVNAMSRACREGELSTCGCSRAARPKDLPRDWLWGGCGDNIDYGYRFAKEFVDARERERIHAKGSYESARILMNLHNNEAGRRTVYNLADVACKCHGVSGSCSLKTCWLQLADFRKVGDALKEKYDSAAAMRLNSRGKLVQVNSRFNSPTTQDLVYIDPSPDYCVRNESTGSLGTQGRLCNKTSEGMDGCELMCCGRGYDQFKTVQTERCHCKFHWCCYVKCKKCTEIVDQFVCK
Question: Which results are given for B1?
Answer: number of CSCs [3]: not been able to detect any reduction; expression of the PGE2 and lipoxin degrading enzyme 15-PGDH [5]: up-regulate; expression of the PGE2 producing enzyme COX-2 [5]: decrease; β-catenin signalling [5]: reduction
